Experimental data published in paper PMC12332404, “Cytochrome P450BM-3 and P450 11A1 retain Compound I (FeO^3+) chemistry with electrophilic substrates poised for Compound 0 (Fe^3+O2^−) reactions” (The Journal of Biological Chemistry, 2025).

Assays:
[1] = target: T1, P450BM-3 (102A1) (Priestia megaterium, UniProt P14779); assay: NADPH oxidation and LC-MS hydroxylation rate ([…] min^-1) with purified enzyme; type: biochemical
T1 construct: gene cyp102A1
T1 sequence (P14779 1-1049): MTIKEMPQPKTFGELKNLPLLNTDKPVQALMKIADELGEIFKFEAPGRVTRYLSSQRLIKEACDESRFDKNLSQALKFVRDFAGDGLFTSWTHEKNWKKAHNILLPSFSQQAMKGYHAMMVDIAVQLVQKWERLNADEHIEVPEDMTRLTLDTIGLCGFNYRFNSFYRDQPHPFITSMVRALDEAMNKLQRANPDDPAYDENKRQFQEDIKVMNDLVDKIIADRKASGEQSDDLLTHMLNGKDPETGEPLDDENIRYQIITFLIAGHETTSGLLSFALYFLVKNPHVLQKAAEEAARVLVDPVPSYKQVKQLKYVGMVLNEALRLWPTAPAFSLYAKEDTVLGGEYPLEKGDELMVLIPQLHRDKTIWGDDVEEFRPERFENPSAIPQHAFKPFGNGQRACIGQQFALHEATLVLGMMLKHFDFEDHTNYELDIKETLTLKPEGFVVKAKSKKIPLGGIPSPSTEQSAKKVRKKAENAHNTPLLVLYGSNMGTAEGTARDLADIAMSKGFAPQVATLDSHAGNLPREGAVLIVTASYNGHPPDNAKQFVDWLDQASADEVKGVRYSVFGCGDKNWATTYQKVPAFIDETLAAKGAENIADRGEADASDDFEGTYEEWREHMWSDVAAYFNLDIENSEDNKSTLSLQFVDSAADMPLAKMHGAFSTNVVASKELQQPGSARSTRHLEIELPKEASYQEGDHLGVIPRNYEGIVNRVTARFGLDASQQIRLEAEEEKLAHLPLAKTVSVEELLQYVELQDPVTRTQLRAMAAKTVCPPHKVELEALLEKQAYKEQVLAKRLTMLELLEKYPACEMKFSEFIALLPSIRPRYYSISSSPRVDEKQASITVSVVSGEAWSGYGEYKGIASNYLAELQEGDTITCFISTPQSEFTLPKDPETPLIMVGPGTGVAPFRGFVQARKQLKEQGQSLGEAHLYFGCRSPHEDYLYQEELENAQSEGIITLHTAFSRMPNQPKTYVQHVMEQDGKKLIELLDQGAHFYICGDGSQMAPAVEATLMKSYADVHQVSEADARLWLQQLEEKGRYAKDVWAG

[2] = target: T1, P450BM-3 (102A1); assay: as above; type: biochemical; remark: listed apart in the source
[3] = target: T1, P450BM-3 (102A1); assay: UV-vis spectral binding titration (Type I shift, […] to […] nm)
[4] = target: T2, P450 11A1 (Homo sapiens, UniProt P05108); assay: UV-vis spectral binding titration (Type II behavior); LC-MS turnover
T2 construct: gene CYP11A1
T2 sequence (P05108 40-521): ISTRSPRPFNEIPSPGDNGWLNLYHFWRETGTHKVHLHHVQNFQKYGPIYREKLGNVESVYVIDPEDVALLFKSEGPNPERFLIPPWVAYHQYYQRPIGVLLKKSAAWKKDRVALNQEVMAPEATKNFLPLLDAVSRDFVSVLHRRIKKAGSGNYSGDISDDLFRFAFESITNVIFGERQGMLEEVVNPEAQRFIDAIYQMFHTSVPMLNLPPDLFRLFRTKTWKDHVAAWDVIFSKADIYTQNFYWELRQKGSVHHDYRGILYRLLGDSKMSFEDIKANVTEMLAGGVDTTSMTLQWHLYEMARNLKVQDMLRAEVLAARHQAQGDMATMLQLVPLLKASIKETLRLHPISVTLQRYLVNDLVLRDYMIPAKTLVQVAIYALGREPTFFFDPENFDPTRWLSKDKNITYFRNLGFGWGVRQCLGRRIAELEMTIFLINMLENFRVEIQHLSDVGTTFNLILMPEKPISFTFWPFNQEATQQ

[5] = target: T1, P450BM-3 (102A1); assay: NADPH oxidation and LC-MS hydroxylation rate ([…] min^-1) with purified enzyme; type: biochemical; remark: listed apart in the source

## CCCCCCCCCCCCCCCC(=O)O [C16:0, palmitic acid]
[1]
  NADPH oxidation and LC-MS hydroxylation rate (100 min^-1) with purified enzyme: 100 min⁻¹

## CCCCCCCCCCCC(=O)O [C12:0, dodecanoic acid]
[2]
  NADPH oxidation and LC-MS hydroxylation rate (2.4 min^-1) with purified enzyme: 2.4 min⁻¹

## CC(=O)CCCCCCCCCCC(=O)O [12-oxo C13:0, 12-oxotridecanoic acid]
[3]
  Kd: ~250 µM

## CC(C)CCC(=O)[C@@H](C)[C@H]1CC[C@H]2[C@@H]3CC=C4C[C@@H](O)CC[C@]4(C)[C@H]3CC[C@]12C [22-oxocholesterol]
[4]
  Kd: 43 ± 20 µM

## CCCCCCCCCCCCCC(=O)O [C14:0, tetradecanoic acid]
[5]
  NADPH oxidation and LC-MS hydroxylation rate (73 min^-1) with purified enzyme: 73 min⁻¹
